Several values for one entry are separate records, joined by “and”; a condition that tells them apart may be missing. Equal entries are not always repeated. Entries after “also recorded” stand apart in the source; their conditions may differ.
Key:
[1] = test system: polyoma virus transformed BHK21/c13 cells, clone S100T1; assay: Clonal test: clonal growth of S100T1 cells in soft agar (Exp 2, 4, 6, 15, 16); type: cell-based, hamster; conditions: for Growth, results after 3 days / Concentration inhibiting (stopping) clonal growth: Exp 2; for Growth, results after 3 days: 400000 S100T1 cells, 1.5% agarose; for Concentration inhibiting (stopping) clonal growth: S100T1, 1.5% agarose, 3 days; for Clonal growth, result day 7: Exp 4, 3 μM, 120000 S100T1 cells, 1.1% agarose; for Significance / Growth: 4-OH—OPB No 11; for Clonal inhibition: S100T1
[2] = test system: polyoma virus transformed BHK21/c13 cells, line S100T1; assay: Collocation inhibition test: clonal growth in sparsely and densely seeded areas of a cell density gradient of S100T1 cells in soft agar (Exp 13, 17, 19-26); conditions: for Growth of treated wells with smallest cell number: 42000 cells/ml; for Growth in low density (sparsely seeded) areas of treated wells: 125000-375000 cells/ml; for Significance: Exp 17 day 14;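 as to all read-outs here: soft agar cultures in 24-well plates with a cell density gradient in the top layer, compounds applied from DMSO stocks, clonal growth scored in sparse versus dense areas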
Procedure: The cells should be grown in a top agar layer to avoid growth on the bottom surface. […] Both densely seeded and sparsely seeded areas were photographed.
Cells: The polyoma virus transformed offspring of BHK21/c13, S100T1, was grown on 75 cm^2 flasks on Eagles medium with 5% foetal calf serum. […] Foetal calf serum (0.7 ml) was added to each harvest. After low speed centrifugation the supernatant was discarded and the cells were dispersed in 1 ml FBS.
The concentration of ultra low gelling temperature agarose (Sigma) of the top agar layer with cells was also 0.8%. […] The addition of cells was performed at the same side of the wells in order to create similar cell density gradients. Finally the top layer agar was consolidated in the refrigerator.
After that it was incubated at 37 degrees in 5% CO2 atmosphere.
Agar cultures were prepared in Falcon 24 well tissue culture plate. Each well contained two agar layers of 0.3 ml.
Agar cultures were prepared in wells of Falcon 24 well tissue culture plate. Each contained two agar layers of 0.3 ml. […] The medium contained Eagles MEM and 10% foetal bovine serum (FBS).
The compounds were first solved in DMSO in 20 mM concentration and then diluted in medium. The top layer needed 60-90 minutes in the refrigerator for solidification before incubation in 37° C. with 5% CO2 atmosphere.
In this experiment the inhibitor was added to the bottom layer in order to get an easier way for making the cell density gradient. One side of the Falcon 24 well plate was elevated 12 degrees in the refrigerator for 60-90 minutes to solidify the bottom layer in an oblique position When then solidifying the cell containing top soft agar layer in horizontal position, the cell gradient constantly became good across the well. […] Another 90 minutes were spent in the refrigerator to consolidate the soft agar layer with cells in a horizontal position. Both layers contained 0.8% agarose, Eagles MEM and 10% FBS.
Tilting the plate 12 degrees when solidifying the bottom layer with the drug and casting the top layer with cells horizontally made a stable cell gradient.
The indicated compounds were added to soft agar cultures of the polyoma virus transformed cell line S100T1 of BHK21/c13 cells (Table 1). Agar cultures were prepared in wells of a Falcon 24 well tissue culture plate. The wells contained two agar layers of 0.3 ml. […] The bottom medium was identical, but without cells.
The compounds were first solved in DMSO in 20 mM concentration and then diluted in bottom medium. The agar layers needed 60-90 minutes in the refrigerator for consolidation before incubation at 37° C. in 5% CO2 atmosphere.

[3] = Exp 13, 4-OH-OPB 1-3 μM, Colchicine 0.01-0.1 μM
[4] = Exp 13, Low inhibitor conc. (4-OH—OPB 1 μM, Colchicine 10 nM), H: high cell density area
[5] = Exp 13, Low inhibitor conc. (4-OH—OPB 1 μM, Colchicine 10 nM), L: low cell density area
[6] = Exp 13, Medium inhibitor conc. (4-OH—OPB 3 μM, Colchicine 33 nM), H: high cell density area
[7] = Exp 13, Medium inhibitor conc. (4-OH—OPB 3 μM, Colchicine 33 nM), L: low cell density area
[8] = Exp 19, 120000 S100T1 cells/well

CCCCC1(O)C(=O)N(c2ccccc2)N(c2ccc(O)cc2)C1=O (stereo not shown) [4-OH-OPB, 4-butyl-4-hydroxy-2(p-hydroxyphenyl)-1-phenyl-3,5-pyrazolidinedione]
Growth, results after 3 days ([1]; 500 nM): inhibited
Growth, results after 3 days ([1]; 1000 nM): inhibited
Growth, results after 3 days ([1]; 1500 nM): inhibited
Growth, results after 3 days ([1]; 2000 nM): inhibited
Growth, results after 3 days ([1]; 3000 nM): inhibited
Concentration inhibiting (stopping) clonal growth [1]: ≥ 500 nM
Concentration inhibiting (stopping) clonal growth ([1]; listed as 4-OH—OPB): Even 500 nM stopped clonal growth
Clonal growth, result day 7 [1]: no growth was observed
Clonal growth, result day 7 ([1]; listed as 4-OH—OPB): Single cells only; also recorded: Completely stopped clonal growth in
Susceptibility after single cells had formed small clones (colonies) ([1]; Exp 6): no longer susceptible
Concentration giving good clonal inhibition ([1]; Exp 6, S100T1, 120000 cells, treatment immediately after seeding): above 1 μM
Growth inhibition at 30 μM when treatment delayed 24 hours ([1]; Exp 6, S100T1, small colonies already formed): small growth inhibition; also recorded: some inhibition of growth
Susceptibility after single cells had formed small clones (colonies) ([1]; Exp 6, listed as 4-OH—OPB): they were not susceptible any more.
Effect on clonal growth at 2 and 20 μM ([1]; Exp 15, 32000 S100T1 cells/well): inhibiting clonal growth
Control compared with the other compounds ([1]; Exp 16): clearly better than any other
Significance ([1]; Exp 16 day 14, 0.67 μM): yes
Growth ([1]; Exp 16 day 14, 0.67 μM in wells): −
Significance ([1]; Exp 16 day 14, 6.7 μM): yes
Growth ([1]; Exp 16 day 14, 6.7 μM in wells): −
Significance ([1]; Exp 16 day 21, 0.67 μM): yes
Growth ([1]; Exp 16 day 21, 0.67 μM in wells): −
Significance ([1]; Exp 16 day 21, 6.7 μM): yes
Growth ([1]; Exp 16 day 21, 6.7 μM in wells): −
Clonal inhibition ([1]; 0.3 μM added after 24 hours, read after 48 hours): 0
Clonal inhibition ([1]; 0.3 μM added immediately, read after 24 hours): 0
Clonal inhibition ([1]; 0.3 μM added immediately, read after 48 hours): 0
Clonal inhibition ([1]; 1 μM added after 24 hours, read after 48 hours): 0
Clonal inhibition ([1]; 1 μM added immediately, read after 24 hours): +
Clonal inhibition ([1]; 1 μM added immediately, read after 48 hours): 0
Clonal inhibition ([1]; 3 μM added after 24 hours, read after 48 hours): 0
Clonal inhibition ([1]; 3 μM added immediately, read after 24 hours): ++
Clonal inhibition ([1]; 3 μM added immediately, read after 48 hours): +−
Clonal inhibition ([1]; 10 μM added after 24 hours, read after 48 hours): 0
Clonal inhibition ([1]; 10 μM added immediately, read after 24 hours): +++
Clonal inhibition ([1]; 10 μM added immediately, read after 48 hours): +
Clonal inhibition ([1]; 30 μM added after 24 hours, read after 48 hours): +
Clonal inhibition ([1]; 30 μM added immediately, read after 48 hours): +++
Anti-clonal effect, summary of Exp 16 ([1]; S100T1 in soft agar): 4-OH—OPB inhibited clones without escaping colonies.
Inhibition of clonal growth at 300 nM ([1]; other/earlier experiments): no inhibition
Growth in locations with high cell density [2, 3]: did not inhibit clonal growth
Growth in locations with low cell density (sparsely seeded cells) [2, 3]: full inhibition on clonal growth of sparsely seeded cells; also recorded: inhibited growth in locations with low cell density even when using low doses
Growth, summary of results after 3 days incubation [2, 4]: +++
Growth, summary of results after 4 days incubation [2, 4]: +++
Growth, summary of results after 3 days incubation [2, 5]: +−
Growth, summary of results after 4 days incubation [2, 5]: +−
Growth, summary of results after 3 days incubation [2, 6]: +++
Growth, summary of results after 4 days incubation [2, 6]: +++
Growth, summary of results after 3 days incubation [2, 7]: −
Growth, summary of results after 4 days incubation [2, 7]: −
Effect on growth in high- and low-density areas ([2]; Exp 17, 144000 S100T1 cells/well): good growth of colonies in high-density areas, but no growth in low-density areas
Clonal growth, results read on the day 14 ([2]; Exp 17, a: close to densely seeded cell areas, Low: Colchicine 0.1, Podophyllotoxin 0.3, Etoposide 20, 4-OH—OPB 0.67 μM in wells, DMSO 1.16 μl): ++
Clonal growth, results read on the day 14 ([2]; Exp 17, a: close to densely seeded cell areas, Medium: Colchicine 0.3, Podophyllotoxin 0.9, Etoposide 60, 4-OH—OPB 2 μM in wells, DMSO 6.8 μl): ++
Clonal growth, results read on the day 14 ([2]; Exp 17, b: sparsely seeded areas in the same agar culture, High: Colchicine 1, Podophyllotoxin 3, Etoposide 200, 4-OH—OPB 6.7 μM in wells, DMSO 29.2 μl): −
Clonal growth, results read on the day 14 ([2]; Exp 17, b: sparsely seeded areas in the same agar culture, Low: Colchicine 0.1, Podophyllotoxin 0.3, Etoposide 20, 4-OH—OPB 0.67 μM in wells, DMSO 1.16 μl): +
Clonal growth, results read on the day 14 ([2]; Exp 17, b: sparsely seeded areas in the same agar culture, Medium: Colchicine 0.3, Podophyllotoxin 0.9, Etoposide 60, 4-OH—OPB 2 μM in wells, DMSO 6.8 μl): −
Effect on growth in densely seeded areas [2, 8]: no significant inhibition
Inhibition of growth in sparsely seeded areas [2, 8]: significant at all concentrations
Clonal growth after 48 hours incubation ([2]; Exp 19, high concentration, H: high cell density part of the gradient): ++
Clonal growth after 48 hours incubation ([2]; Exp 19, high concentration, L: low cell density part of the gradient): −
Clonal growth after 48 hours incubation ([2]; Exp 19, low concentration (exact conc. only in figure), H: high cell density part of the gradient): ++
Clonal growth after 48 hours incubation ([2]; Exp 19, low concentration, L: low cell density part of the gradient): −
Clonal growth after 48 hours incubation ([2]; Exp 19, medium concentration, H: high cell density part of the gradient): ++
Clonal growth after 48 hours incubation ([2]; Exp 19, medium concentration, L: low cell density part of the gradient): −
Concentration with no significant growth inhibition on denser populated areas ([2]; Exp 20): 1 to 6 µM and 1 to 18 µM
Inhibiting effect on densely seeded areas, higher doses (6-18 μM) ([2]; Exp 20): small or moderate
Inhibiting effect on densely seeded areas, low doses (1 μM) ([2]; Exp 20): abscent
Clonal growth after 48 hours ([2]; Exp 20, 4-OH—OPB 1 μM, cell number High 225000 (375′/ml), H: high cell density part): +++
Clonal growth after 48 hours ([2]; Exp 20, 4-OH—OPB 1 μM, cell number High 225000 (375′/ml), L: low cell density part): −
Clonal growth after 48 hours ([2]; Exp 20, 4-OH—OPB 1 μM, cell number Medium 75000 (125′/ml), H: high cell density part): ++(+)
Clonal growth after 48 hours ([2]; Exp 20, 4-OH—OPB 1 μM, cell number Medium 75000 (125′/ml), L: low cell density part): −
Clonal growth after 48 hours ([2]; Exp 20, 4-OH—OPB 6 μM, cell number High 225000 (375′/ml), H: high cell density part): +
Clonal growth after 48 hours ([2]; Exp 20, 4-OH—OPB 6 μM, cell number High 225000 (375′/ml), L: low cell density part): −
Clonal growth after 48 hours ([2]; Exp 20, 4-OH—OPB 6 μM, cell number Medium 75000 (125′/ml), H: high cell density part): +
Clonal growth after 48 hours ([2]; Exp 20, 4-OH—OPB 6 μM, cell number Medium 75000 (125′/ml), L: low cell density part): −
Clonal growth after 48 hours ([2]; Exp 20, 4-OH—OPB 18 μM, cell number High 225000 (375′/ml), H: high cell density part): +
Clonal growth after 48 hours ([2]; Exp 20, 4-OH—OPB 18 μM, cell number High 225000 (375′/ml), L: low cell density part): −
Clonal growth after 48 hours ([2]; Exp 20, 4-OH—OPB 18 μM, cell number Medium 75000 (125′/ml), H: high cell density part): +
Clonal growth after 48 hours ([2]; Exp 20, 4-OH—OPB 18 μM, cell number Medium 75000 (125′/ml), L: low cell density part): −
Growth of treated wells with smallest cell number ([2]; Exp 20): did not grow even in dense areas
Growth of treated wells with smallest cell number ([2]; Exp 20, listed as 4-OH—OPB): Low cell numbers, 42000 cells/ml gave no
Growth in low density (sparsely seeded) areas of treated wells ([2]; Exp 20): very strong inhibition of growth
Growth in low density (sparsely seeded) areas of treated wells ([2]; Exp 20, listed as 4-OH—OPB): growth. 125000-375000 cells/ml gave no
Concentration with anti clonal effect on sparsely seeded cells ([2]; Exp 20, cross-titration of cell number and dose, 48 hours): 1 µM and 1 to 18 µM
Clonal growth ([2]; Exp 21, 117000 cells per well, Low concentration (see figure), H: area with high cell density): ++(+)
Clonal growth ([2]; Exp 21, High concentration, H: area with high cell density): +
Clonal growth ([2]; Exp 21, High concentration, L: area with low cell density): −
Clonal growth ([2]; Exp 21, Low concentration, L: area with low cell density): +−
Clonal growth ([2]; Exp 21, Medium concentration, H: area with high cell density): ++(+)
Clonal growth ([2]; Exp 21, Medium concentration, L: area with low cell density): −
Growth in dense areas, high concentration ([2]; Exp 22, control inhibitor): absent
Growth in dense areas, medium concentration ([2]; Exp 22, control inhibitor): doubtful
Effect on growth ([2]; Exp 23, 180000 S100T1 cells/well): complete inhibition of clonal growth in sparsely seeded areas
Clonal growth in densely seeded areas at high or medium concentrations (9 and 3 μM) ([2]; Exp 24, control): reduced clonal growth
Effect at 0.11 μM ([2]; Exp 24, control): The effect was gone
Effect at 0.11 μM ([2]; Exp 25, control): no growth inhibition was observed
Effect at 3 μM ([2]; Exp 25, control): substantial inhibition of the growth in densely seeded areas
Densely seeded parts of the gradient, high concentration ([2]; Exp 26, read after 24 hours): did not affect the densely seeded parts of the gradient
Inhibition of sparsely seeded cells, high and medium concentrations ([2]; Exp 26, read after 24 hours): nice and complete inhibition
Sparsely seeded cells, low concentration ([2]; Exp 26, read after 24 hours): break through of clonal growth
Significance ([2]; a: close to densely seeded cell areas, High: Colchicine 1, Podophyllotoxin 3, Etoposide 200, 4-OH—OPB 6.7 μM in wells, DMSO 29.2 μl): Probably
Significance ([2]; a: close to densely seeded cell areas, Low: Colchicine 0.1, Podophyllotoxin 0.3, Etoposide 20, 4-OH—OPB 0.67 μM in wells, DMSO 1.16 μl): No
Significance ([2]; a: close to densely seeded cell areas, Medium: Colchicine 0.3, Podophyllotoxin 0.9, Etoposide 60, 4-OH—OPB 2 μM in wells, DMSO 6.8 μl): No
Significance ([2]; b: sparsely seeded areas, High: Colchicine 1, Podophyllotoxin 3, Etoposide 200, 4-OH—OPB 6.7 μM in wells, DMSO 29.2 μl): Yes
Significance ([2]; b: sparsely seeded areas, Low: Colchicine 0.1, Podophyllotoxin 0.3, Etoposide 20, 4-OH—OPB 0.67 μM in wells, DMSO 1.16 μl): No
Significance ([2]; b: sparsely seeded areas, Medium: Colchicine 0.3, Podophyllotoxin 0.9, Etoposide 60, 4-OH—OPB 2 μM in wells, DMSO 6.8 μl): Yes
Clonal growth ([2]; Experiment 22, H: area with high cell density, High concentration): −

— patent US20060121449A1, “Method for selection of compounds which inhibit clonal cell growth and use thereof” (priority 2002, published 2006)
